# Experimental data taken from patent US4778797A, “Organo-silicon compounds, process for the manufacture of same, and anti-tumor agent comprising the compound” (Sanwa Kagaku Kenkyusho Co., Ltd., priority 1984, dated 1988).
# Read-outs that look alike come from different tables or passages of the source.
# Legend:
# [1] = system: KB cells; assay: Suppression of KB cell proliferation in vitro; format: cell-based; conditions: Homo sapiens, 72 h, 3 days exposure, Trypan Blue dye-exclusion, read-out: KB IC50 (50% inhibition density to tumor cell proliferation)
# Procedure: In a cultivation device (5% CO2, 37° C.), KB cells (1×10^4 cells) were cultivated for 24 hours in a culture tube with 1 ml of Eagle culture medium added 10% ox serum, the used culture medium was thrown away to change with a fresh culture medium (0.9 ml), and then 0.1 ml of a similar culture fluid containing each testing compound prepared by the process as described in the Examples was added to cultivate the same for further 3 days. Thereafter, living cells were dyed with Tripan Blue and measured same through a dye-exclusion method.
# A control was treated in a manner similar to the above, except that a culture fluid containing no compound of the invention was added.
# 50% inhibition density (IC50) to the tumor cell proliferation was decided through the tests between the testing group and the control group to obtain results as shown in following Table 1.
# [2] = system: L-1210 leukemia; assay: Anti-tumor action to L-1210 leukemia; format: in vivo, BDF1 female mice; conditions: Mus musculus, L1210, oral; for ILS at 250 mg/kg/day: 250 mg/kg/day × 3 (1st, 5th, 9th day); for ILS at 500 mg/kg/day: 500 mg/kg/day × 3 (1st, 5th, 9th day)
# Procedure: L-1210 leukemia cell (1×10^5 cells) was transplanted in a abdominal cavity of BDF1 female mice (20-21 g, age of about 5 weeks), and each of testing compounds was orally dosed in 250 mg/kg or 500 mg/kg at 1st, 5th and 9th day after the transplantation to check days of life of the mice. [formula]
# [3] = system: Colon-38 carcinoma; assay: Anti-tumor action to Colon-38 carcinoma; format: in vivo, BDF1 mice; conditions: oral, tumor weight at 28th day
# Procedure: 0.02 ml of 10(W/V)% cell suspension prepared from a solid cancer cell (Colon-38 carcinoma) were transplanted under skin of BDF1 mice (20-21 g, age of about 5 weeks), and each of testing compounds was orally dosed to the mice at 1st, 5th and 9th day after the transplantation. A major and minor axes of the cancerous tumor were measured at 11th, 14th, 21st, 25th and 28th day after the transplantation to calcurate volume of the tumor in accordance with the following.
# At 28th day from the transplantation, the mice were killed and each of the cancerous tumors was extracted to measure its weight and to determine an inhibitation ratio in comparison with a non-treated control group.
# [4] = system: B-16 melanoma; assay: Anti-tumor action to B-16 melanoma; format: in vivo, BDF1 female mice; conditions: oral, tumor weight at 21st day; for inhibition in vivo at 250 mg/kg/day: 250 mg/kg/day × 3
# Excerpt: B-16 melanoma (1×10^5 cells) was transplanted under skin of BDF1 female mice (age of about 5 weeks), and each of testing compounds was orally dosed at 1st, 5th and 9th day after the transplantation. At 21st day after the transplantation, the mice were killed to measure a weight of the cancerous tumor and to finally determine an inhibition ratio.
# [5] = system: Lewis lung carcinoma; assay: Anti-tumor action to Lewis lung carcinoma (primary tumor weight and metastasis); format: in vivo, BDF1 mice; conditions: Mus musculus, po, 504 h
# Excerpt: Lewis lung carcinoma (1×10^5 cells) was transplanted under skin of right ear of BDF1 mice (age of about 5 weeks), and each of testing compounds was orally dosed 10 times from 1st to 10th day after the transplantation. At 21st day after the transplantation, the mice were killed to measure a weight of the primarly tumor and to extract a lung. The lung was fixed in a conventional manner to count a number of metastasis on cancerous cells with use of a stereomicroscope having a low magnification. An anti-tumor action of each compound was expressed with an inhibition in weight of the primarly tumor and an inhibition of the metastasis.
# [6] = Acute toxicity; format: in vivo, CrJ/CDI female mice; conditions: mouse, in vivo; oral gavage, suspended in 0.1% P-1570, female mice, 21 days observation
# Procedure: Each of testing compounds suspended in 0.1% P-1570 was orally and forcedly dosed through a gastric probe to CrJ/CDI female mice (21 to 22 g, age of about 5 weeks). An identification number was given to each mouse, and a weighing and observation on general behavior were carried out just before the dosage and each day after the same. Each of died mice was subjected without delay to an autopsy to check the same, more particularly in detail on enterona. All of living mice were killed at 21st day from the dosage to carry out an autopsy for checking the same, more particularly on entrails.
# An LD50 was calculated in accordance with the Leed and Munch's method.
# A similar test was carried out on each controls of 1-[2-[(2-trimethylsilylethyl)thio]ethylcarbamoyl]-5-fluorouracil and 1-hexylcarbamoyl-5-fluorouracil (HCFU) which is one of exemplary anti-tumor agents.
# [7] = system: MM-46 adenocarcinoma; assay: Anti-tumor action to MM-46 adenocarcinoma; format: in vivo, C3H/He female mice; conditions: oral, 250 mg/kg/day × 3 (1st, 5th, 9th day); days to death, testing vs control group
# Excerpt: MM-46 adenocarcinoma (1×10^6 cells) was transplanted under skin of C3H/He female mice (age of about 5 weeks), and each of testing compounds was orally dosed at 1st, 5th and 9th day after the transplantation to check days of life on the mice.
# T: days to death on testing group, and
# C: days to death on control group.
# [8] = Mus musculus, B16, 504 h, 300 mg/kg/day × 3, read-out: B-16 melanoma Inhibition ratio
# [9] = 13.5 mg/kg/day × 10 + Amputation, 21st day, read-out: Inhibition Ratio weight LLC
# [10] = 13.5 mg/kg/day × 10 + Amputation, lung, 21st day, printed in parentheses, read-out: Inhibition Ratio metastasis
# [11] = 27 mg/kg/day × 10 + Amputation, 21st day, read-out: Inhibition Ratio weight LLC
# [12] = 27 mg/kg/day × 10 + Amputation, lung, 21st day, printed in parentheses, read-out: Inhibition Ratio metastasis
# [13] = 27 mg/kg/day × 10, 21st day, read-out: Inhibition Ratio weight LLC
# [14] = 27 mg/kg/day × 10, lung, 21st day, read-out: Inhibition Ratio metastasis
# [15] = 54 mg/kg/day × 10, 21st day, read-out: Inhibition Ratio weight LLC
# [16] = 54 mg/kg/day × 10, lung, 21st day, read-out: Inhibition Ratio metastasis
# [17] = Mus musculus, B16, 504 h, read-out: B-16 melanoma Inhibition ratio
Compound,IC50 [1],ILS at 250 mg/kg/day ([2]; read-out: L-1210 ILS),ILS at 250 mg/kg/day ([2]; read-out: L-1210 Judgement),ILS at 500 mg/kg/day ([2]; read-out: L-1210 ILS),ILS at 500 mg/kg/day ([2]; read-out: L-1210 Judgement),"inhibition in vivo at 300 mg/kg/day [4, 8]",LD50 at 504 h [6],"inhibition in vivo at 13.5 mg/kg/day [5, 9]","inhibition in vivo at 13.5 mg/kg/day [5, 10]","inhibition in vivo at 27 mg/kg/day [5, 11]","inhibition in vivo at 27 mg/kg/day [5, 12]","inhibition in vivo at 27 mg/kg/day [5, 13]","inhibition in vivo at 27 mg/kg/day [5, 14]","inhibition in vivo at 54 mg/kg/day [5, 15]","inhibition in vivo at 54 mg/kg/day [5, 16]","inhibition in vivo at 250 mg/kg/day [4, 17]",further results
"CC[Si](CC)(CC)CCSCCNC(=O)n1cc(F)c(=O)[nH]c1=O [Example 2, 5-Fluoro-3,4-dihydro-2,4-dioxo-N-[2-[[(2-triethylsilyl)ethyl]thio]ethyl]-1(2H)-pyrimidinecarboxamide]",13 µg/mL,19%,< 25%,96%,50 to 100%,47.2%,1540 mg/kg,,,,,,,,,,"inhibition in vivo at 300 mg/kg/day ([3]; Mus musculus, 672 h, 300 mg/kg/day × 3, read-out: colon-38 Inhibition ratio): 71.9%; inhibition in vivo at 14 mg/kg/day ([5]; 14 mg/kg/day × 10, 21st day, read-out: Inhibition Ratio weight LLC): 0%; inhibition in vivo at 14 mg/kg/day ([5]; 14 mg/kg/day × 10, lung, 21st day, read-out: Inhibition Ratio metastasis): 45.2%"
"CC(C)[Si](C)(C)CCSCCNC(=O)n1cc(F)c(=O)[nH]c1=O [Example 5, 5-Fluoro-3,4-dihydro-N-[2-[[2-(isopropyldimethylsilyl)ethyl]thio]ethyl]-2,4-dioxo-1(2H)-pyrimidinecarboxamide]",4 µg/mL,51%,25 to 50%,106%,≥ 100%,,,34.7%,15.4%,35.8%,> 39.5%,7.1%,78.4%,34.9%,83%,,"colon-38 Inhibition ratio ([3]; 289 mg/kg/day × 3): 89.8%; MM-46 adenocarcinoma T/C × 100 [7]: 162%; B-16 melanoma Inhibition ratio ([4]; 300 mg/kg/day × 3): 79.7%; inhibition in vivo at 13.5 mg/kg/day ([5]; 13.5 mg/kg/day × 10, 21st day, read-out: Inhibition Ratio weight LLC): 0%; inhibition in vivo at 13.5 mg/kg/day ([5]; 13.5 mg/kg/day × 10, lung, 21st day, read-out: Inhibition Ratio metastasis): 19.3%"
"CCCC[Si](C)(C)CCSCCNC(=O)n1cc(F)c(=O)[nH]c1=O [Example 6, N-[2-[[2-(Butyldimethylsilyl)ethyl]thio]ethyl]-5-fluoro-3,4-dihydro-2,4-dioxo-1(2H)-pyrimidinecarboxamide]",12 µg/mL,35%,25 to 50%,73%,50 to 100%,53.5%,,37.3%,18.3%,30.9%,23.1%,39.6%,92.6%,38%,95.1%,,colon-38 Inhibition ratio ([3]; 300 mg/kg/day × 3): 81.2%
"C[Si](C)(C)CCSCCCNC(=O)n1cc(F)c(=O)[nH]c1=O [Example 8, 5-Fluoro-3,4-dihydro-2,4-dioxo-N-[3-[[2-(trimethylsilyl)ethyl]thio]propyl]-1-(2H)-pyrimidinecarboxamide]",7 µg/mL,27%,25 to 50%,70%,50 to 100%,,1360 mg/kg,,,,,,,,,4.3%,"inhibition in vivo at 278 mg/kg/day ([3]; Mus musculus, 672 h, 278 mg/kg/day × 3, read-out: colon-38 Inhibition ratio): 78%; inhibition in vivo at 13 mg/kg/day ([5]; 13 mg/kg/day × 10 + Amputation, 21st day, read-out: Inhibition Ratio weight LLC): 33.3%; inhibition in vivo at 13 mg/kg/day ([5]; 13 mg/kg/day × 10 + Amputation, lung, 21st day, printed in parentheses, read-out: Inhibition Ratio metastasis): 18.4%; inhibition in vivo at 13 mg/kg/day ([5]; 13 mg/kg/day × 10, 21st day, read-out: Inhibition Ratio weight LLC): 0%; inhibition in vivo at 13 mg/kg/day ([5]; 13 mg/kg/day × 10, lung, 21st day, read-out: Inhibition Ratio metastasis): 53%; inhibition in vivo at 26 mg/kg/day ([5]; 26 mg/kg/day × 10 + Amputation, 21st day, read-out: Inhibition Ratio weight LLC): 64.9%; inhibition in vivo at 26 mg/kg/day ([5]; 26 mg/kg/day × 10 + Amputation, lung, 21st day, printed in parentheses, read-out: Inhibition Ratio metastasis): 33.6%; inhibition in vivo at 26 mg/kg/day ([5]; 26 mg/kg/day × 10, 21st day, read-out: Inhibition Ratio weight LLC): 26.2%; inhibition in vivo at 26 mg/kg/day ([5]; 26 mg/kg/day × 10, lung, 21st day, read-out: Inhibition Ratio metastasis): 92.5%"
"C[Si](C)(C)CCCSCCCNC(=O)n1cc(F)c(=O)[nH]c1=O [Example 10, 5-Fluoro-3,4-dihydro-2,4-dioxo-N-[3-[[3-(trimethylsilyl)propyl]thio]propyl]-1(2H)-pyrimidinecarboxamide]",10 µg/mL,49%,25 to 50%,111%,≥ 100%,,2170 mg/kg,,,,,,,,,15.2%,"inhibition in vivo at 289 mg/kg/day ([3]; Mus musculus, 672 h, 289 mg/kg/day × 3, read-out: colon-38 Inhibition ratio): 89.5%; inhibition in vivo at 125 mg/kg/day ([4]; Mus musculus, B16, 504 h, 125 mg/kg/day × 3, read-out: B-16 melanoma Inhibition ratio): 38.1%"
